Measured values reported in patent US20240041042A1, “1-(PYRIDYL)-5-AZINYLPYRAZOLE DERIVATIVES, AND THEIR USE FOR CONTROL OF UNDESIRED PLANT GROWTH” (Bayer Aktiengesellschaft, priority 2020, published 2024).
Where two headings read alike, the source gives them in different places.

What was measured:
Format in all cases: in vivo
[1] = tested on: Alopecurus myosuroides (ALOMY); test: Pre-emergence herbicidal action against ALOMY; conditions: 320 g/ha; scored visually after about 3 weeks; 100% = plants have died
Summary of the method: (§1)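 Dosages of 320 g/ha or less; pre-emergence; WP or EC in aqueous spray, 0.5% additive, 600 l/ha; greenhouse; visual % effect after ~3 wk relative to control pots.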

Lolium rigidum (LOLRI) = test: Pre-emergence herbicidal action against LOLRI; conditions: dosage 320 g/ha
Summary of the method: as §1

Setaria viridis (SETVI) [2] = test: Pre-emergence herbicidal action against SETVI; conditions: dosage 320 g/ha
Summary of the method: as §1

Brassica napus (BRSNW) = conditions: crop plant compatibility, in comparison to untreated controls
Summary of the method: (§2)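 Crop injury rated visually in percent against untreated plants roughly 3 weeks after treatment (0% no effect, 100% plants dead). Compounds, as WP or EC with 0.5% additive in 600 l/ha water, were applied to the covering soil right after sowing; greenhouse growth. Suffixes a, b, c denote different dosages.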

Glycine max (GLXMA) = conditions: pre-emergence, 80 g/ha, crop plant compatibility, in comparison to untreated controls
Summary of the method: as §2

Oryza sativa (ORYSA) [3] = conditions: pre-emergence, crop plant compatibility, in comparison to untreated controls
Summary of the method: as §2

[4] = tested on: Triticum aestivum (TRZAS); conditions: pre-emergence, 80 g/ha, crop plant compatibility, in comparison to untreated controls
Summary of the method: as §2

Zea mays (ZEAMX) [5] = conditions: pre-emergence, crop plant compatibility, in comparison to untreated controls
Summary of the method: as §2

[6] = tested on: Alopecurus myosuroides (ALOMY); test: Post-emergence herbicidal action against ALOMY; conditions: visual rating about 3 weeks after treatment vs untreated controls (100% = plants have died, 0% = like control plants)
Summary of the method: (§3)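 Values are percent visual activity (0% like control, 100% plants dead) after about 3 weeks in the greenhouse. Treatment: post-emergence spray at one-leaf stage, 600 l/ha spray volume, 0.5% additive, doses 320 g/ha or lower.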

[7] = tested on: Amaranthus retroflexus (AMARE); test: Post-emergence herbicidal action against AMARE
Summary of the method: as §3

Oryza sativa (ORYSA) [8] = conditions: crop plant compatibility
Summary of the method: (§4)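 Greenhouse crops in sandy loam sprayed post-emergence at the one-leaf stage, 2–3 weeks after sowing, with WP or EC formulations in water plus 0.5% additive at 600 l/ha. Damage rated visually about 3 weeks later versus untreated controls (0% = like control, 100% = dead); suffixes a–c denote different doses.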

[9] = tested on: Triticum aestivum (TRZAS); conditions: crop plant compatibility, effect vs untreated controls
Summary of the method: as §4

Zea mays (ZEAMX) [10] = conditions: for Post-emergence action against ZEAMX in %: crop plant compatibility, 80 g/ha, effect vs untreated controls
Summary of the method: as §4

[11] = tested on: Amaranthus retroflexus (AMARE); test: Pre-emergence herbicidal action against AMARE; conditions: 320 g/ha, visual scoring after about 3 weeks vs untreated controls
Summary of the method: as §1

Viola tricolor (VIOTR) [12] = test: Pre-emergence herbicidal action against VIOTR; conditions: 320 g/ha, Viola tricolor
Summary of the method: as §1

[13] = tested on: Abutilon theophrasti (ABUTH); test: Post-emergence herbicidal action against ABUTH; conditions: 320 g/ha, visual rating about 3 weeks after treatment vs untreated controls (100% = plants have died, 0% = like control plants)
Summary of the method: as §3

Avena fatua (AVEFA) = test: Post-emergence herbicidal action against AVEFA; conditions: 320 g/ha, visual rating about 3 weeks after treatment
Summary of the method: as §3

[14] = tested on: Pharbitis purpurea (PHBPU); test: Post-emergence herbicidal action against PHBPU; conditions: dosage 320 g/ha
Summary of the method: as §3

Setaria viridis (SETVI) [15] = test: Post-emergence herbicidal action against SETVI
Summary of the method: as §3

[16] = tested on: Verconica persica (VERPE); test: Post-emergence herbicidal action against VERPE; conditions: 320 g/ha, VERPE
Summary of the method: as §3

Viola tricolor (VIOTR) [17] = test: Post-emergence herbicidal action against VIOTR; conditions: 320 g/ha
Summary of the method: as §3

[18] = tested on: Echinochloa crus-galli (ECHCG); test: Pre-emergence herbicidal action against ECHCG; conditions: dosage 320 g/ha
Summary of the method: as §1

[19] = tested on: Matricaria inodora (MATIN); test: Pre-emergence herbicidal action against MATIN
Summary of the method: as §1

[20] = tested on: Polygonum convolvulus (POLCO); test: Pre-emergence herbicidal action against POLCO; conditions: dosage 320 g/ha
Summary of the method: as §1

[21] = tested on: Verconica persica (VERPE); test: Pre-emergence herbicidal action against VERPE; conditions: dosage 320 g/ha
Summary of the method: as §1

[22] = tested on: Echinochloa crus-galli (ECHCG); test: Post-emergence herbicidal action against ECHCG
Summary of the method: as §3

[23] = tested on: Polygonum convolvulus (POLCO); test: Post-emergence herbicidal action against POLCO; conditions: dosage 320 g/ha
Summary of the method: as §3

[24] = 80 g/ha, visual rating about 3 weeks after treatment vs untreated controls (100% = plants have died, 0% = like control plants)
[25] = 20 g/ha, effect vs untreated controls
[26] = 80 g/ha, effect in comparison to untreated controls
[27] = 320 g/ha, visual rating about 3 weeks after treatment
[28] = 320 g/ha, effect in comparison to untreated controls

Row | Pre-emergence action against BRSNW in % (Brassica napus (BRSNW); 80 g/ha) | Pre-emergence action against GLXMA in % (Glycine max (GLXMA)) | Pre-emergence action against ORYSA in % (Oryza sativa (ORYSA) [3]; 80 g/ha) | Pre-emergence action against TRZAS in % [4] | Pre-emergence action against ZEAMX in % (Zea mays (ZEAMX) [5]; 80 g/ha) | Post-emergence action against ORYSA in % (Oryza sativa (ORYSA) [8]; [25]) | Post-emergence action against ORYSA in % (Oryza sativa (ORYSA) [8]; [26]) | Post-emergence action against TRZAS in % ([9]; 20 g/ha) | Post-emergence action against ZEAMX in % (Zea mays (ZEAMX) [10]) | Pre-emergence action against ZEAMX in % (Zea mays (ZEAMX) [5]; 320 g/ha) | Structure (SMILES) | Pre-emergence action against ALOMY [1] | Pre-emergence action against LOLRI in % (Lolium rigidum (LOLRI)) | Pre-emergence action against SETVI in % (Setaria viridis (SETVI) [2]) | Post-emergence action against ALOMY in % ([6]; 80 g/ha) | Post-emergence action against AMARE in % [7, 24] | Pre-emergence action against AMARE in % [11] | Pre-emergence action against VIOTR in % (Viola tricolor (VIOTR) [12]) | Post-emergence action against AMARE in % [7, 27] | Post-emergence action against AVEFA in % (Avena fatua (AVEFA)) | Post-emergence action against SETVI in % (Setaria viridis (SETVI) [15]; dosage 320 g/ha) | further results
1 | 0% | 20% | 10% | 10% | 10% | 10% | 20% | 10% | 10% | – | COC(=O)CCOC(=O)COc1nn(-c2ccccn2)c(-c2cncc(F)c2)c1C1CC1 [Example I-71] | 90% | 90% | 100% | 90% | 90% | – | – | – | – | – | Post-emergence action against ZEAMX in % (crop plant compatibility) (Zea mays (ZEAMX) [10]; 20 g/ha, ZEAMX, effect in comparison to untreated controls): 0%
2 | 10% | 0% | 0% | 10% | 0% | 10% | 20% | 10% | – | 0% | O=C(O)COc1nn(-c2ccccn2)c(-c2cncc(F)c2)c1C1CC1 [Example I-72] | 100% | 100% | 90% | 90% | 80% | 90% | 90% | – | – | – | Pre-emergence action against ORYSA in % (Oryza sativa (ORYSA) [3]; 320 g/ha): 20%
3 | 0% | 0% | 0% | 0% | 0% | – | 0% | – | 0% | 0% | O=C(O)COc1nn(-c2ccnc(Cl)c2)c(-c2ccc(F)nc2)c1Br [III-23] | 90% | 100% | 100% | – | 90% | 90% | – | 90% | 80% | 100% | Pre-emergence action against BRSNW in % (Brassica napus (BRSNW); 320 g/ha): 0%; Post-emergence action against ABUTH in % [13]: 80%; Post-emergence action against ALOMY in % ([6]; 320 g/ha): 100%; Post-emergence action against PHBPU in % [14]: 80%; Post-emergence action against SETVI in % (Setaria viridis (SETVI) [15]; dosage 80 g/ha): 80%; Post-emergence action against VERPE in % [16]: 90%; Post-emergence action against VIOTR in % (Viola tricolor (VIOTR) [17]): 90%; Post-emergence action against ORYSA in % (Oryza sativa (ORYSA) [8]; [28]): 20%; Post-emergence action against TRZAS in % ([9]; 80 g/ha): 0%
4 | 20% | 20% | – | 20% | – | – | 0% | – | – | – | COC(=O)CNC(=O)CSc1nn(-c2ccccn2)c(-c2cncnc2)c1Br [Example I-65] | 80% | 90% | 90% | – | – | 90% | 100% | 80% | 80% | 80% | Pre-emergence action against ECHCG in % [18]: 90%; Pre-emergence action against MATIN in % ([19]; dosage 80 g/ha): 80%; Pre-emergence action against MATIN in % ([19]; dosage 320 g/ha): 90%; Pre-emergence action against POLCO in % [20]: 90%; Pre-emergence action against VERPE in % [21]: 80%; Post-emergence action against ECHCG in % ([22]; dosage 80 g/ha): 80%; Post-emergence action against ECHCG in % ([22]; dosage 320 g/ha): 80%; Post-emergence action against POLCO in % [23]: 80%; Post-emergence action against ORYSA in % (Oryza sativa (ORYSA) [8]; [28]): 0%
